Results from patent US20240108740A1, “THERAPEUTIC COMPOSITIONS INCLUDING SPN10 AND USES THEREOF” (Stealth BioTherapeutics Inc., priority 2022, published 2024).
Residues, ends and D or L forms follow the SMILES beside them.

What was measured:
[1] = tested on: male C57BL mice; assay: Example 46: burn-induced liver apoptosis; assay type: in vivo, mouse
Method: Six-to-eight week old male C57BL mice will be subjected to 30% total body surface (TBSA) burn injury and subsequently injected daily with saline vehicle; peptide conjugates (5 mg/kg body weight); aromatic-cationic peptides (an equivalent molar dose of aromatic-cationic peptide based on the concentration of the aromatic-cationic peptide administered in the peptide conjugate treatment group); SPN10(s) (an equivalent molar dose of SPN10 based on the concentration of SPN10 administered in the peptide conjugate treatment group); or SPN10(s) in combination with aromatic-cationic peptides (e.g., an equivalent molar dose of SPN10 based on the concentration of SPN10 administered in the peptide conjugate treatment group and an equivalent molar dose of aromatic-cationic peptide based on the concentration of aromatic-cationic peptide administered in the peptide conjugate treatment group). A weight- and time-matched sham-burn group exposed to lukewarm (˜37° C.) will serve as controls. Liver tissues will be collected 1, 3, and 7 days after burn injury treatment and analyzed for apoptosis (TUNEL), activated caspase levels (Western blot), and caspase activity (enzymatic assay).

[2] = tested on: hind limb casted mice; assay: Hind limb immobilization (casting) induced skeletal muscle atrophy; assay type: in vivo, mouse
Method: 2. […] Casted mice will receive an i.p. injection of saline vehicle (0.3 mL), peptide conjugate, aromatic-cationic peptide, SPN10, or SPN10 with aromatic-cationic peptides. A control group of untreated mice will be also used in this experiment.
Subjects will receive s.c. injections of saline vehicle (0.3 mL) or the peptide conjugate, aromatic-cationic peptide or SPN10 (alone or in combination with aromatic-cationic peptides) (1.5 mg/kg for the peptide conjugate and equivalent molar doses of aromatic-cationic peptide and/or SPN10 based on concentration of the aromatic-cationic peptide or SPN10 administered in the peptide conjugate group) administered once daily during the immobilization period.
Immobilization. Mice will be anesthetized with gaseous isoflurane (3% induction, 0.5-2.5%) maintenance). Anesthetized animals will be cast-immobilized bilaterally with the ankle joint in the plantar-flexed position to induce maximal atrophy of the soleus and plantaris muscle. Both hind limbs and the caudal fourth of the body will be encompassed by a plaster cast. A thin layer of padding will be placed underneath the cast in order to prevent abrasions. In addition, to prevent the animals from chewing on the cast, one strip of fiberglass material will be applied over the plaster. The mice will be monitored on a daily basis for chewed plaster, abrasions, venous occlusion, and problems with ambulation.
Preparation of permeabilized muscle fibers. Permeabilized muscle fibers will be prepared as previously described. Korshunov, et al., FEBS Lett 416:15-18, 1997; Tonkonogi, et al., Pfliigers Arch 446:261-269, 2003. Briefly, the muscle will be trimmed of connective tissue and cut down to fiber bundles (4-8 mg wet wt). Under a microscope and using a pair of extra-sharp forceps, the muscle fibers will be gently separated in ice-cold buffer X containing 60 mM K-MES, 35 mM KCl, 7.23 mM K2EGTA, 2.77 mM CaK2EGTA, 20 mM imidazole, 0.5 mM DTT, 20 mM taurine, 5.7 mM ATP, 15 mM PCr, and 6.56 mM MgCl2·6 H2O (pH 7.1, 295 mosmol/kg H2O) to maximize surface area of the fiber bundle. To permeabilize the myofibers, each fiber bundle will be incubated in ice-cold buffer X containing 50 μg/mL saponin on a rotator for 30 minutes at 4° C. The permeabilized bundles will be washed in ice-cold buffer Z, containing 110 mM K-MES, 35 mM KCl, 1 mM EGTA, 5 mM K2HPO4, and 3 mM MgCl2, 0.005 mM glutamate, and 0.02 mM malate and 0.5 mg/mL BSA, pH 7.1.
Mitochondrial respiration in permeabilized fibers. Respiration will be measured polarographically in a respiration chamber maintained at 37° C. (Hansatech Instruments, United Kingdom). After the respiration chamber will be calibrated, permeabilized fiber bundles will be incubated with 1 mL of respiration buffer Z containing 20 mM creatine to saturate creatine kinase (Saks, et al., Mol. Cell Biochem. 184:81-100, 1998; Walsh, et al., J. Physiol. 537:971-978,2001). Flux through complex I will be measured using 5 mM pyruvate and 2 mM malate. The maximal respiration (state 3), defined as the rate of respiration in the presence of ADP, will be initiated by adding 0.25 mM ADP to the respiration chamber. Basal respiration (state 4) will be determined in the presence of 10 µg/mL oligomycin to inhibit ATP synthesis. The respiratory control ratio (RCR) will be calculated by dividing state 3 by state 4 respiration.
Mitochondrial ROS production. Mitochondrial ROS production will be determined using Amplex™ Red (Molecular Probes, Eugene, OR, U.S.A.). The assay will be performed at 37° C. in 96-well plates using succinate as the substrate. Superoxide dismutase (SOD) will be added at 40 units/mL to convert all superoxide into H2O2. Resorufin formation (Amplex™ Red oxidation by H2O2) will be monitored at an excitation wavelength of 545 nm and an emission wavelength of 590 nm using a multi-well plate reader fluorometer (SpectraMax, Molecular Devices, Sunnyvale, CA, U.S.A.). […]

N=C(N)NCCC[C@H](NC(=O)[C@@H](N)Cc1c[nH]c2ccccc12)C(=O)N[C@@H](Cc1c[nH]c2ccccc12)C(=O)N[C@@H](CCCCN)C(N)=O [SPN10, H-L-Trp-L-Arg-L-Trp-L-Lys-NH2] (H-WRWK-NH2)
rate of apoptosis in the liver after burn (TUNEL) ([1]; 30% TBSA burn, days 1, 3, 7): attenuate or prevent this effect | protein oxidation following burn injury ([1]; compared to burn control subjects): decrease in protein oxidation | caspase-3 activation (Western blot) ([1]; days 3 and 7 post-burn): attenuate or suppress caspase-3 activation | caspase activity (enzymatic assay) ([1]; post-burn day 7): reduce caspase activity to a level not statistically different from that of sham control group | oxidative damage in soleus muscle, lipid peroxidation via 4-hydroxynonenal (4-HNE) ([2]; casting): overcome | protease activity in the soleus muscle ([2]; casting): attenuated or prevented | increase in H2O2 production by mitochondria isolated from soleus muscle ([2]; casting for 7 days): prevented | decrease in soleus muscle weight and mitochondrial state 3 respiration ([2]; hind limb casting for 7 days): reversed | calpain-1, caspase-3 and caspase-12 proteolytic degradation of muscle ([2]; mouse, in vivo): prevented | oxidative damage and associated muscle weakness induced by hind limb immobilization ([2]; mouse, in vivo): prevent
